The values that follow come from patent US8802700B2 (Vertex Pharmaceuticals Incorporated, priority 2010, dated 2014).

The structures appear in SMILES notation.

The target of the assay is T1, ΔF508-CFTR (Homo sapiens, UniProt P13569, DEL508-508).
T1 construct: expressed in transfected cells
T1 sequence (P13569 with tags, fused parts or gaps DEL508-508): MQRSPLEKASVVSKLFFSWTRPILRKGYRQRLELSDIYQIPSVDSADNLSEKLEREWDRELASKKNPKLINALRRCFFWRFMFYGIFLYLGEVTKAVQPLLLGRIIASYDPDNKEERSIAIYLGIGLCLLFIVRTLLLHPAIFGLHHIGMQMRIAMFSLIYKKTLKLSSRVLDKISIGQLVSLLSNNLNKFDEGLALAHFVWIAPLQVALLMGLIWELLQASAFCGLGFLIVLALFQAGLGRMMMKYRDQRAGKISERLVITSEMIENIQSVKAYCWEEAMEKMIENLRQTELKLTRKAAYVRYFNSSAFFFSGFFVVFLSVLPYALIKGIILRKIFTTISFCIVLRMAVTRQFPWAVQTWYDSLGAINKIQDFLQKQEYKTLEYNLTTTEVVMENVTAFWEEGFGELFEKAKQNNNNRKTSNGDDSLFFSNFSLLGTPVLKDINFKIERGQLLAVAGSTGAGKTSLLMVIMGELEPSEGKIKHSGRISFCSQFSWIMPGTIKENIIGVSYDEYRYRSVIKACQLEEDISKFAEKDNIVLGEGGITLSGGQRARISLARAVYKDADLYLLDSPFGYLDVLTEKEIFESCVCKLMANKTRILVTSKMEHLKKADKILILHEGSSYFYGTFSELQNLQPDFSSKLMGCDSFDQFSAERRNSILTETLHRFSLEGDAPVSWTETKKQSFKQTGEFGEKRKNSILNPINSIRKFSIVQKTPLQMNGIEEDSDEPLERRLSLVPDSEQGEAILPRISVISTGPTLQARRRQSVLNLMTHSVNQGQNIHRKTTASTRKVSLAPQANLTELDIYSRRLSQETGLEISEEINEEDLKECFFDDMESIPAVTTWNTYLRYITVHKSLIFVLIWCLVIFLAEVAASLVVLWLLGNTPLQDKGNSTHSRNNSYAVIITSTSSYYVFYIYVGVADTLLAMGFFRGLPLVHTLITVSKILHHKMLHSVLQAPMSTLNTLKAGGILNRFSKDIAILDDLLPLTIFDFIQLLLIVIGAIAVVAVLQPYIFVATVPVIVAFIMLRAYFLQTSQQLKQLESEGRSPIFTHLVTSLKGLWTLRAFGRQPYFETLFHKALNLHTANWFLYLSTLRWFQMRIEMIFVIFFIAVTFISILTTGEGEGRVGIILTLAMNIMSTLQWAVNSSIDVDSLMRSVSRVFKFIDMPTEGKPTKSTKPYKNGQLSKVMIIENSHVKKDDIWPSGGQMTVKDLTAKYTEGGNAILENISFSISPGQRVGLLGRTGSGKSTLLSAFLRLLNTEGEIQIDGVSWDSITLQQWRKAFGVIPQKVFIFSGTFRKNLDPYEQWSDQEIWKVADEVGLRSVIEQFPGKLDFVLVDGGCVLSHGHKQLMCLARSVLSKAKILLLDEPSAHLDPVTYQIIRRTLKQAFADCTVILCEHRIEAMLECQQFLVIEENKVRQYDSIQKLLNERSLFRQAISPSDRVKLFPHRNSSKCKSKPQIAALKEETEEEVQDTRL
Put plainly: Membrane potential optical assay (FRET voltage-sensor dyes, VIPR), identification of potentiator compounds. The class given is cell-based. The note with it: Table 3; assay not given; read-out: % Activity (% Efficacy, relative efficacy). The gist of the method:
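Potentiator screen measured membrane potential via FRET between CC2-DMPE donor and DiSBAC2(3), read on VIPR II. Compound went in with the first addition of chloride-free gluconate bath; cells were ΔF508-CFTR-expressing NIH3T3 mouse fibroblasts, temperature-corrected at 27 °C for 24 h.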
In the case of `CC(C)(C)c1cc(C(C)(C)C)c(NC(=O)c2c[nH]c3ccc(Br)cc3c2=O)cc1O` [Compound 553, 6-bromo-N-(5-hydroxy-2,4-ditert-butyl-phenyl)-4-oxo-1H-quinoline-3-carboxamide], the Emax was in the range of 25 to 100%.

For the molecule `O=C(Nc1ccccc1-c1ccc(OC(F)(F)F)cc1)c1c[nH]c2ccccc2c1=O` [Compound 388, 4-oxo-N-[2-[4-(trifluoromethoxy)phenyl]phenyl]-1H-quinoline-3-carboxamide], the Emax is 25 to 100%. With `CC(=O)c1ccc(-c2ccccc2NC(=O)c2c[nH]c3ccccc3c2=O)s1` [Compound 174, N-[2-(5-acetyl-2-thienyl)phenyl]-4-oxo-1H-quinoline-3-carboxamide] the figure was 25 to 100%. As to `O=C(Nc1ccc(F)cc1)c1c[nH]c2ccccc2c1=O` [Compound 198, N-(4-fluorophenyl)-4-oxo-1H-quinoline-3-carboxamide], the Emax was 25 to 100%.

Consider `CCOC(=O)Nc1ccc(C(C)C)c(NC(=O)c2c[nH]c3ccccc3c2=O)c1` [Compound 269, [4-isopropyl-3-[(4-oxo-1H-quinolin-3-yl)carbonylamino]phenyl]aminoformic acid ethyl ester], for which the Emax fell in the range of 25 to 100%. Consider `COc1ccc(NC(=O)c2c[nH]c3ccccc3c2=O)cc1OC` [Compound 122, N-(3,4-dimethoxyphenyl)-4-oxo-1H-quinoline-3-carboxamide], for which the Emax was less than 25%. For `CCCOc1ccc(NC(=O)c2c[nH]c3ccccc3c2=O)cc1N` [Compound 368, N-(3-amino-4-propoxy-phenyl)-4-oxo-1H-quinoline-3-carboxamide], the Emax fell in the range of 25 to 100%. Take `Cc1cc(C(C)(C)C)c(O)cc1NC(=O)c1c[nH]c2ccc(F)cc2c1=O` [Compound 683, 6-fluoro-N-(5-hydroxy-2-methyl-4-tert-butyl-phenyl)-4-oxo-1H-quinoline-3-carboxamide]: the Emax fell in the range of 25 to 100%.

As to `O=C(Nc1ccccn1)c1c[nH]c2ccccc2c1=O` [Compound 155, 4-oxo-N-(2-pyridyl)-1H-quinoline-3-carboxamide], the Emax is less than 25%. For `CC(C)(C)c1ccc(NC(=O)c2c[nH]c3ccccc3c2=O)cc1CO` [Compound 6, N-[3-(hydroxymethyl)-4-tert-butyl-phenyl]-4-oxo-1H-quinoline-3-carboxamide], the Emax is greater than 100%. Then `CCN(CC)c1ccc(NC(=O)c2c[nH]c3ccccc3c2=O)c(C)c1` [Compound 82, N-(4-diethylamino-2-methyl-phenyl)-4-oxo-1H-quinoline-3-carboxamide], with 25 to 100%; and `O=C(Nc1ccc(C2CCCCC2)c(O)c1)c1c[nH]c2ccccc2c1=O` [Compound 564, N-(4-cyclohexyl-3-hydroxy-phenyl)-4-oxo-1H-quinoline-3-carboxamide], with 25 to 100%. Then `O=C(Nc1ccccc1-c1nc(-c2ccc(Cl)cc2)no1)c1c[nH]c2ccccc2c1=O` [Compound 102, N-[2-[3-(4-chlorophenyl)-1,2,4-oxadiazol-5-yl]phenyl]-4-oxo-1H-quinoline-3-carboxamide], with 25 to 100%; and `CC(C)(C)c1ccc(NC(=O)c2c[nH]c3ccccc3c2=O)cc1S(N)(=O)=O` [Compound 268, 4-oxo-N-(3-sulfamoyl-4-tert-butyl-phenyl)-1H-quinoline-3-carboxamide], with 25 to 100%; and `CCOc1ccccc1-c1ccc(NC(=O)OC(C)(C)C)cc1NC(=O)c1c[nH]c2ccccc2c1=O` [Compound 114, [4-(2-ethoxyphenyl)-3-[(4-oxo-1H-quinolin-3-yl)carbonylamino]phenyl]aminoformic acid tert-butyl ester], with 25 to 100%.

Take `COC(=O)C1CCCCN1c1ccc(NC(=O)c2c[nH]c3ccccc3c2=O)c(C(F)(F)F)c1` (stereo not shown) [Compound 492, methyl 1-[4-[(4-oxo-1H-quinolin-3-yl)carbonylamino]-3-(trifluoromethyl)phenyl]piperidine-2-carboxylate]: the Emax was greater than 100%. With `Cc1cccc(-c2ccccc2NC(=O)c2c[nH]c3ccccc3c2=O)c1` [Compound 52, N-[2-(m-tolyl)phenyl]-4-oxo-1H-quinoline-3-carboxamide] the figure was 25 to 100%; with `NC(=O)c1ccccc1NC(=O)c1c[nH]c2ccccc2c1=O` [Compound 331, N-(2-carbamoylphenyl)-4-oxo-1H-quinoline-3-carboxamide], less than 25%.

As to `O=C(Nc1ccccc1Cl)c1c[nH]c2ccccc2c1=O` [Compound 330, N-(2-chlorophenyl)-4-oxo-1H-quinoline-3-carboxamide], the Emax lay within 25 to 100%. With `O=C(Nc1cc(C(F)(F)F)ccc1C(F)(F)F)c1c[nH]c2ccccc2c1=O` [Compound 630, N-[2,5-bis(trifluoromethyl)phenyl]-4-oxo-1H-quinoline-3-carboxamide] the figure was 25 to 100%; with `O=C(Nc1ccccc1-c1cccc(Cl)c1)c1c[nH]c2ccccc2c1=O` [Compound 307, N-[2-(3-chlorophenyl)phenyl]-4-oxo-1H-quinoline-3-carboxamide], 25 to 100%; with `CC(=O)c1ccccc1NC(=O)c1c[nH]c2ccccc2c1=O` [Compound 365, N-(2-acetylphenyl)-4-oxo-1H-quinoline-3-carboxamide], 25 to 100%.

Take `O=C(Nc1ccccc1-c1ccc(F)c(Cl)c1)c1c[nH]c2ccccc2c1=O` [Compound 190, N-[2-(3-chloro-4-fluoro-phenyl)phenyl]-4-oxo-1H-quinoline-3-carboxamide]: the Emax is 25 to 100%. Then `Cc1cccc2[nH]cc(C(=O)Nc3ccc(OC(C)C)cc3C(F)(F)F)c(=O)c12` [Compound 547, N-[4-isopropoxy-2-(trifluoromethyl)phenyl]-5-methyl-4-oxo-1H-quinoline-3-carboxamide], with greater than 100%. Take `CN1CCC(C)(C)c2ccc(NC(=O)c3c[nH]c4ccccc4c3=O)cc21` [Compound 710, 4-oxo-N-(1,4,4-trimethyl-2,3-dihydroquinolin-7-yl)-1H-quinoline-3-carboxamide]: the Emax was in the range of 25 to 100%. Then `CCOc1cccc2c(=O)c(C(=O)Nc3cc4[nH]ccc4cc3C(C)(C)C)c[nH]c12` [Compound 641, 8-ethoxy-4-oxo-N-(5-tert-butyl-1H-indol-6-yl)-1H-quinoline-3-carboxamide], with less than 25%; and `CC(C)(C)C(=O)Nc1ccc(NC(=O)c2c[nH]c3ccccc3c2=O)c(C(F)(F)F)c1` [Compound 556, N-[4-(2,2-dimethylpropanoylamino)-2-(trifluoromethyl)phenyl]-4-oxo-1H-quinoline-3-carboxamide], with 25 to 100%; and `Cc1c[nH]c2cccc(NC(=O)c3c[nH]c4ccccc4c3=O)c12` [Compound 338, N-(3-methyl-1H-indol-4-yl)-4-oxo-1H-quinoline-3-carboxamide], with 25 to 100%. With `CCc1cccc(C)c1NC(=O)c1c[nH]c2ccccc2c1=O` [Compound 180, N-(2-ethyl-6-methyl-phenyl)-4-oxo-1H-quinoline-3-carboxamide] the figure was 25 to 100%; with `COC(=O)Nc1ccc(C(C)C)c(NC(=O)c2c[nH]c3ccccc3c2=O)c1` [Compound 239, [4-isopropyl-3-[(4-oxo-1H-quinolin-3-yl)carbonylamino]phenyl]aminoformic acid methyl ester], 25 to 100%. For `CC(=O)N1CCC2(CCN(C(=O)OC(C)(C)C)CC2)c2ccc(NC(=O)c3c[nH]c4ccccc4c3=O)cc21` [Compound 334, 7′-[(4-oxo-1H-quinolin-3-ylcarbonyl)amino]-spiro[piperidine-4,4′(1′H)-1-acetyl-quinoline], 2′,3′-dihydro-carboxylic acid tert-butyl ester], the Emax was in the range of 25 to 100%. Consider `CCC(=O)Nc1cccc(NC(=O)c2c[nH]c3ccccc3c2=O)c1` [Compound 81, 4-oxo-N-(3-propionylaminophenyl)-1H-quinoline-3-carboxamide], for which the Emax was less than 25%. With `Cc1ccc2c(=O)c(C(=O)Nc3ccc(N4CCC[C@@H]4C)cc3C(F)(F)F)c[nH]c2c1` [Compound 607, (S)-7-methyl-N-(4-(2-methylpyrrolidin-1-yl)-2-(trifluoromethyl)phenyl)-4-oxo-1,4-dihydroquinoline-3-carboxamide] the figure was 25 to 100%. With `COC(=O)[C@@H]1[C@H]2C[C@H]2CN1c1ccc(NC(=O)c2c[nH]c3ccccc3c2=O)c(C(F)(F)F)c1` [Compound 531, (1S,2S,5R)-methyl 3-(4-(4-oxo-1,4-dihydroquinoline-3-carboxamido)-3-(trifluoromethyl)phenyl)-3-azabicyclo[3.1.0]hexane-2-carboxylate] the figure was 25 to 100%; with `O=C(Nc1ccc(C(F)(F)F)cc1Cl)c1c[nH]c2ccccc2c1=O` [Compound 532, N-[2-chloro-4-(trifluoromethyl)phenyl]-4-oxo-1H-quinoline-3-carboxamide], 25 to 100%.

On to `CC(C)(C)c1ccccc1NC(=O)c1c[nH]c2ccccc2c1=O` [Compound 90, 4-oxo-N-(2-tert-butylphenyl)-1H-quinoline-3-carboxamide], for which the Emax was in the range of 25 to 100%. Then `CCCc1ccc(N(C)C)cc1NC(=O)c1c[nH]c2ccccc2c1=O` [Compound 98, N-(5-dimethylamino-2-propyl-phenyl)-4-oxo-1H-quinoline-3-carboxamide], with 25 to 100%; and `COc1ccc2[nH]cc(C(=O)Nc3ccc(N4CCC(C)(C)C4)cc3C(F)(F)F)c(=O)c2c1` [Compound 504, N-[4-(3,3-dimethylpyrrolidin-1-yl)-2-(trifluoromethyl)phenyl]-6-methoxy-4-oxo-1H-quinoline-3-carboxamide], with 25 to 100%; and `O=C(Nc1ccccc1-c1cc(Cl)ccc1Cl)c1c[nH]c2ccccc2c1=O` [Compound 213, N-[2-(2,5-dichlorophenyl)phenyl]-4-oxo-1H-quinoline-3-carboxamide], with 25 to 100%.

Regarding `CCOC(=O)Nc1cc(NC(=O)c2c[nH]c3ccccc3c2=O)ccc1C(C)(C)C` [Compound 127, [5-[(4-oxo-1H-quinolin-3-yl)carbonylamino]-2-tert-butyl-phenyl]aminoformic acid ethyl ester], the Emax was in the range of 25 to 100%.
